Values of other authors, collected in patent US11559485B2 (NANOCOPOEIA, LLC, priority 2020, dated 2023).
Where a name gives a salt, the structure may show the parent alone.

Conditions: low/moderate aqueous solubility and low permeability

Q: Which BCS class does the source give for `Cc1cn(-c2cc(NC(=O)c3ccc(C)c(Nc4nccc(-c5cccnc5)n4)c3)cc(C(F)(F)F)c2)cn1` [Nilotinib monohydrochloride monohydrate] here?
A: The BCS class was “Class IV”.
